Experimental data reported in a compilation of properties of binary mixtures (doi:10.2298/jsc190413047v).

Assay: xn = mol fraction of the nth substance listed
Details: 100 kPa

O=C1CCCO1 + CCCC[N+]1(C)CCCC1.O=S(=O)([N-]S(=O)(=O)C(F)(F)F)C(F)(F)F
x1 = 1
Details | electrical conductivity [S/m] | viscosity [mPa·s]
298.15 K | 0.001 | 1.73
303.15 K | 0.001 | 1.63
308.15 K | 0.001 | 1.52
313.15 K | 0.001 | 1.42
318.15 K | 0.001 | 1.35
323.15 K | 0.002 | 1.3

O=C1CCCCO1 + CCCC[n+]1ccn(C)c1.O=S(=O)([N-]S(=O)(=O)C(F)(F)F)C(F)(F)F
electrical conductivity [S/m]
Details | 293.15 K | 298.15 K | 303.15 K | 308.15 K | 313.15 K | 318.15 K | 323.15 K
x2 = 0.0532 | 0.167 | 0.18 | 0.195 | – | 0.225 | 0.244 | –
x2 = 0.1004 | 0.395 | – | – | – | 0.553 | 0.595 | 0.636
x2 = 0.1504 | – | 0.658 | – | 0.779 | 0.848 | 0.924 | –
x2 = 0.1999 | 0.655 | 0.725 | 0.797 | 0.87 | 0.952 | – | –
x2 = 0.2988 | 0.67 | 0.744 | 0.822 | – | 0.984 | 1.07 | 1.16
x2 = 0.4006 | – | – | 0.741 | 0.818 | 0.905 | 0.99 | 1.08
x2 = 0.5005 | 0.522 | – | 0.669 | 0.749 | 0.827 | 0.92 | 1.01
x2 = 0.5999 | 0.411 | – | 0.559 | 0.637 | 0.72 | 0.815 | 0.928
x2 = 0.7214 | 0.385 | 0.453 | 0.532 | – | 0.697 | 0.789 | –
x2 = 0.8475 | – | 0.418 | 0.495 | 0.575 | 0.658 | 0.754 | 0.858
x2 = 0.9003 | 0.34 | 0.412 | 0.484 | 0.563 | 0.646 | 0.745 | 0.846

O=C1CCCO1 + CCCC[n+]1ccn(C)c1.O=S(=O)([N-]S(=O)(=O)C(F)(F)F)C(F)(F)F
Details | electrical conductivity [S/m] | viscosity [mPa·s]
293.15 K, x1 = 0.1005 | 0.347 | 46.39
293.15 K, x1 = 0.1984 | 0.388 | 37.16
293.15 K, x1 = 0.4001 | 0.519 | 23.42
293.15 K, x1 = 0.5021 | 0.637 | 17.37
293.15 K, x1 = 0.5979 | 0.797 | 12.26
293.15 K, x1 = 0.7021 | 1.13 | 8.54
293.15 K, x1 = 0.7999 | 1.34 | 5.53
293.15 K, x1 = 0.8995 | 1.34 | 3.49
293.15 K, x1 = 0.95 | 1.04 | –
293.15 K, x1 = 1 | 0.001 | 1.92
298.15 K, x1 = 0.1005 | 0.428 | 38.33
298.15 K, x1 = 0.1984 | 0.469 | 30.92
298.15 K, x1 = 0.2992 | 0.546 | 24.97
298.15 K, x1 = 0.4001 | 0.618 | 19.75
298.15 K, x1 = 0.5979 | 0.928 | 10.7
298.15 K, x1 = 0.7021 | 1.29 | 7.58
298.15 K, x1 = 0.7999 | 1.5 | 5.04
298.15 K, x1 = 0.8496 | 1.53 | –
298.15 K, x1 = 0.8995 | 1.48 | 3.26
298.15 K, x1 = 0.95 | 1.14 | –
298.15 K, x1 = 1 | 0.001 | 1.73
298.15 K, x2 = 0.0151 | 0.444 | –
303.15 K, x1 = 0.1005 | 0.501 | 31.8
303.15 K, x1 = 0.1984 | 0.552 | 25.69
303.15 K, x1 = 0.4001 | 0.72 | 16.68
303.15 K, x1 = 0.5021 | 0.853 | 12.76
303.15 K, x1 = 0.5979 | 1.05 | 9.32
303.15 K, x1 = 0.7021 | 1.43 | 6.67
303.15 K, x1 = 0.7999 | 1.65 | 4.55
303.15 K, x1 = 0.8496 | 1.69 | –
303.15 K, x1 = 0.8995 | 1.61 | 2.97
303.15 K, x1 = 0.95 | 1.23 | –
303.15 K, x1 = 1 | 0.001 | 1.63
303.15 K, x2 = 0.0151 | 0.477 | –
308.15 K, x1 = 0.1005 | 0.586 | 26.88
308.15 K, x1 = 0.1984 | 0.642 | 21.98
308.15 K, x1 = 0.2992 | 0.745 | 17.9
308.15 K, x1 = 0.4001 | 0.825 | 14.35
308.15 K, x1 = 0.5021 | 0.981 | 11.04
308.15 K, x1 = 0.7021 | 1.63 | 6
308.15 K, x1 = 0.8995 | 1.75 | 2.76
308.15 K, x1 = 0.95 | 1.32 | –
308.15 K, x2 = 0.0151 | 0.509 | –
313.15 K, x1 = 0.1005 | 0.68 | 22.69
313.15 K, x1 = 0.2992 | 0.854 | 15.26
313.15 K, x1 = 0.4001 | 1 | 12.32
313.15 K, x1 = 0.5021 | 1.2 | 9.62
313.15 K, x1 = 0.7021 | 1.81 | 5.41
313.15 K, x1 = 0.7999 | 1.98 | 3.78
313.15 K, x1 = 0.8496 | 2.01 | –
313.15 K, x1 = 0.8995 | 1.88 | 2.55
318.15 K, x1 = 0.1005 | 0.768 | 19.31
318.15 K, x1 = 0.1984 | 0.85 | 15.86
318.15 K, x1 = 0.2992 | 0.965 | 13.24
318.15 K, x1 = 0.4001 | 1.19 | 10.82
318.15 K, x1 = 0.5021 | 1.4 | 8.52
318.15 K, x1 = 0.5979 | 1.64 | 6.49
318.15 K, x1 = 0.7021 | 1.99 | 4.84
318.15 K, x2 = 0.0151 | 0.576 | –
323.15 K, x1 = 0.1005 | 0.898 | 16.54
323.15 K, x1 = 0.1984 | 1.03 | 13.86
323.15 K, x1 = 0.2992 | 1.24 | 11.57
323.15 K, x1 = 0.4001 | 1.46 | 9.47
323.15 K, x1 = 0.5021 | 1.68 | 7.51
323.15 K, x1 = 0.5979 | 1.91 | 5.83
323.15 K, x1 = 0.7021 | 2.21 | 4.44
323.15 K, x1 = 0.8496 | 2.34 | –
323.15 K, x1 = 0.8995 | 2.17 | 2.18
323.15 K, x1 = 0.95 | 1.62 | –
323.15 K, x2 = 0.0151 | 0.609 | –

CCCC[n+]1ccn(C)c1.O=S(=O)([N-]S(=O)(=O)C(F)(F)F)C(F)(F)F + O=C1CCCCO1
x1 = 1
Details | electrical conductivity [S/m]
293.15 K | 0.337
303.15 K | 0.472
308.15 K | 0.552
313.15 K | 0.64
323.15 K | 0.835

CCCCCCCCn1cc[n+](C)c1.O=S(=O)([N-]S(=O)(=O)C(F)(F)F)C(F)(F)F + O=C1CCCO1
electrical conductivity [S/m]
Details | x2 = 0 | x2 = 0.0997 | x2 = 0.2993 | x2 = 0.5048 | x2 = 0.6963 | x2 = 0.7994 | x2 = 0.8503 | x2 = 0.8999 | x2 = 0.9514
293.15 K | 0.106 | 0.126 | 0.184 | – | 0.601 | 0.845 | 0.953 | 0.984 | 0.653
298.15 K | – | 0.161 | 0.235 | 0.396 | – | 0.955 | 1.06 | 1.07 | 0.718
303.15 K | 0.17 | 0.199 | 0.28 | 0.474 | 0.83 | 1.07 | 1.17 | 1.18 | –
308.15 K | – | 0.24 | 0.342 | 0.553 | 0.94 | 1.21 | 1.29 | 1.29 | 0.853
313.15 K | 0.254 | 0.285 | – | 0.636 | 1.06 | 1.33 | 1.41 | 1.39 | 0.915
318.15 K | – | – | 0.48 | 0.744 | 1.19 | 1.47 | 1.53 | – | 0.976
323.15 K | 0.361 | 0.397 | – | 0.817 | 1.33 | 1.56 | 1.64 | 1.59 | –
